# Paper PMC7316778 (Nature Communications, 2020)
# Several values for one entry are separate records, joined by “and”; a condition that tells them apart may be missing. Equal entries are not always repeated. Where two headings read alike, the source gives them in different places.
# Tests used:
# FGFR3 = FGFR3 (Homo sapiens, UniProt P22607); experiment: SelectScreen kinase assay
# Procedure: (§1) Selectivity profiling assays were performed by the Invitrogen SelectScreen™ Services. […] The concentration of ATP was selected to be equal to the KM, unless indicated otherwise.
# STK32C (YANK3) = STK32C (YANK3) (Homo sapiens, UniProt Q86UX6); experiment: SelectScreen kinase assay
# Procedure: as §1
# STK17A (DRAK1) = molecular target: T1, STK17A (DRAK1) (Homo sapiens, UniProt Q9UEE5); experiment: SelectScreen kinase assay
# T1 sequence (Q9UEE5 1-414): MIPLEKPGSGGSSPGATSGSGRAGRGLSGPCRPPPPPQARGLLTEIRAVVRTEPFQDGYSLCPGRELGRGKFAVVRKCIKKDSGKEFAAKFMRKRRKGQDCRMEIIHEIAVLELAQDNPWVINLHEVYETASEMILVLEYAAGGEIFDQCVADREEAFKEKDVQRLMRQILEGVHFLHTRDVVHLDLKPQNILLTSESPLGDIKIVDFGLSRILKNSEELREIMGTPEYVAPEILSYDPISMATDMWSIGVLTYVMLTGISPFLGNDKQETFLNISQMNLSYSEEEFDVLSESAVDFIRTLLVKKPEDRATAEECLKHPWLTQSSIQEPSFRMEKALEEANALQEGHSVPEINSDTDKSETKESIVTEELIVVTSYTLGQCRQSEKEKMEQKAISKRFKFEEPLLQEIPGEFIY
# Procedure: as §1
# STK39 (STLK3) = STK39 (STLK3) (Homo sapiens, UniProt Q9UEW8); experiment: SelectScreen kinase assay
# Procedure: as §1
# NTRK1 (TRKA) = NTRK1 (TRKA) (Homo sapiens, UniProt P04629); experiment: SelectScreen kinase assay
# Procedure: as §1
# PLK3 = PLK3 (Homo sapiens, UniProt Q9H4B4); experiment: SelectScreen kinase assay
# Procedure: as §1
# MKNK1 (MNK1) = MKNK1 (MNK1) (Homo sapiens, UniProt Q9BUB5); experiment: SelectScreen kinase assay
# Procedure: as §1
# MAPK7 (ERK5) = MAPK7 (ERK5) (Homo sapiens, UniProt Q13164); experiment: SelectScreen kinase assay
# Procedure: as §1
# GRK6 = GRK6 (Homo sapiens, UniProt P43250); experiment: SelectScreen kinase assay
# Procedure: as §1
# FES^S700C = FES^S700C (Homo sapiens, UniProt P07332, S700C); experiment: Inhibitor washout by dialysis; type: binding; design: expressed in transfected cells; host or cells: HEK293T (transient, PEI)
# JAK3 = molecular target: T2, JAK3 (Homo sapiens, UniProt P52333); experiment: SelectScreen kinase assay
# T2 sequence (P52333 1-1124): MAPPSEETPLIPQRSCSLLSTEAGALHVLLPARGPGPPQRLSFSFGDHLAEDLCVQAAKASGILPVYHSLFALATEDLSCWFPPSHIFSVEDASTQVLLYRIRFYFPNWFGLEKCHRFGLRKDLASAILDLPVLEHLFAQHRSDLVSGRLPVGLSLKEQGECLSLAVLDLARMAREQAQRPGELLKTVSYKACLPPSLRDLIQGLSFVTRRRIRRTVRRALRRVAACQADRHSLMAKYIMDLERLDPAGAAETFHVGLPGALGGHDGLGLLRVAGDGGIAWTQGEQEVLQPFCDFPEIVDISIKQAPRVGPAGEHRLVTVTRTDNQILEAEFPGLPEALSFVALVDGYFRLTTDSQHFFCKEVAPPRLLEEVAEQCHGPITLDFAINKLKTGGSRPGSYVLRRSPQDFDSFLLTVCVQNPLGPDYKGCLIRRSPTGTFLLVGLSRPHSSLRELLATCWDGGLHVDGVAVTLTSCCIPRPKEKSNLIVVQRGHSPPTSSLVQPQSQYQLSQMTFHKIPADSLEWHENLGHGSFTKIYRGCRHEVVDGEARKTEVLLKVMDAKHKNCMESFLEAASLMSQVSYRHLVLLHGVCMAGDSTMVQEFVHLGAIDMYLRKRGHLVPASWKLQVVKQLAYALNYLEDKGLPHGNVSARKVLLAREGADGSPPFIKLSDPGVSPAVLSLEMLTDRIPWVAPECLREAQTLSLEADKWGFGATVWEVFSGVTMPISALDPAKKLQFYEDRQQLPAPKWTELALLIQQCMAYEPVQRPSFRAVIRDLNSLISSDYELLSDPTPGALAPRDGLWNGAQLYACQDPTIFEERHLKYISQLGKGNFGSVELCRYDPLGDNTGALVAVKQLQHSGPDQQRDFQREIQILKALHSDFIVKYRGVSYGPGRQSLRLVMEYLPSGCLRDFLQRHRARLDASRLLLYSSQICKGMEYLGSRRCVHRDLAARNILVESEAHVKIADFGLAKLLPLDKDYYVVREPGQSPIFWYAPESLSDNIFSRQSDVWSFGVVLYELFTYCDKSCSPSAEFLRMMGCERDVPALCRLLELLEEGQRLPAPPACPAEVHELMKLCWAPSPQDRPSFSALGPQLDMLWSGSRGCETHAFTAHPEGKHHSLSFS
# Procedure: as §1
# IKBKB (IKK beta) = IKBKB (IKK beta) (Homo sapiens, UniProt O14920); experiment: SelectScreen kinase assay
# Procedure: as §1
# MARK1 (MARK) = MARK1 (MARK) (Homo sapiens, UniProt Q9P0L2); experiment: SelectScreen kinase assay
# Procedure: as §1
# [1] = 1 h, 1 μM WEL028, 1 h preincubation
# [2] = read-out: Inhibition at 1 µM (%)
# [3] = 1 µM, LanthaScreen Binding, listed as WEL028, 1 µM
# [4] = read-out: Inhibition at 1 µM (%), 1 µM, LanthaScreen Binding
# Sequence of NTRK1 (TRKA) (P04629 33-796): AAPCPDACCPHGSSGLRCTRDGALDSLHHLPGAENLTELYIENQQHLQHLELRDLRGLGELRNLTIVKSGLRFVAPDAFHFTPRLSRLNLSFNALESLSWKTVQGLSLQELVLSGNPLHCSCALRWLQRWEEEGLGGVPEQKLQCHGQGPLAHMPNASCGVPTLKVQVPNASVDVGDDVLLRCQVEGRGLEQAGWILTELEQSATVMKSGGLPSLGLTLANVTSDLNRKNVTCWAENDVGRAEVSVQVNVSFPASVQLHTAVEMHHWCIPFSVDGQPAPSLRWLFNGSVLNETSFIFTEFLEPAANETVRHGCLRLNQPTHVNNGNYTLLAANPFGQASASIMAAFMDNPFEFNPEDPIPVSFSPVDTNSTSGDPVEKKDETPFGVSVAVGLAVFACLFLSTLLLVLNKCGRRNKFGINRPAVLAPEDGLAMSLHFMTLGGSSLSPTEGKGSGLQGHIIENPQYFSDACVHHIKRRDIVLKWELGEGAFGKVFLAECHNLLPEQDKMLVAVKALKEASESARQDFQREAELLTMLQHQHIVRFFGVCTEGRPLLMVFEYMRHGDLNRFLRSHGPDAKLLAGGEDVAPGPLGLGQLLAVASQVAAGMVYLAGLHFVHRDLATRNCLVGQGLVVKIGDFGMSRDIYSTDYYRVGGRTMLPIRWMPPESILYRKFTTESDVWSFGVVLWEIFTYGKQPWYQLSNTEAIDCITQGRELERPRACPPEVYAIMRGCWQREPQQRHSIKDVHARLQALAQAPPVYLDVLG
# Sequence of MAPK7 (ERK5) (Q13164 whole entry): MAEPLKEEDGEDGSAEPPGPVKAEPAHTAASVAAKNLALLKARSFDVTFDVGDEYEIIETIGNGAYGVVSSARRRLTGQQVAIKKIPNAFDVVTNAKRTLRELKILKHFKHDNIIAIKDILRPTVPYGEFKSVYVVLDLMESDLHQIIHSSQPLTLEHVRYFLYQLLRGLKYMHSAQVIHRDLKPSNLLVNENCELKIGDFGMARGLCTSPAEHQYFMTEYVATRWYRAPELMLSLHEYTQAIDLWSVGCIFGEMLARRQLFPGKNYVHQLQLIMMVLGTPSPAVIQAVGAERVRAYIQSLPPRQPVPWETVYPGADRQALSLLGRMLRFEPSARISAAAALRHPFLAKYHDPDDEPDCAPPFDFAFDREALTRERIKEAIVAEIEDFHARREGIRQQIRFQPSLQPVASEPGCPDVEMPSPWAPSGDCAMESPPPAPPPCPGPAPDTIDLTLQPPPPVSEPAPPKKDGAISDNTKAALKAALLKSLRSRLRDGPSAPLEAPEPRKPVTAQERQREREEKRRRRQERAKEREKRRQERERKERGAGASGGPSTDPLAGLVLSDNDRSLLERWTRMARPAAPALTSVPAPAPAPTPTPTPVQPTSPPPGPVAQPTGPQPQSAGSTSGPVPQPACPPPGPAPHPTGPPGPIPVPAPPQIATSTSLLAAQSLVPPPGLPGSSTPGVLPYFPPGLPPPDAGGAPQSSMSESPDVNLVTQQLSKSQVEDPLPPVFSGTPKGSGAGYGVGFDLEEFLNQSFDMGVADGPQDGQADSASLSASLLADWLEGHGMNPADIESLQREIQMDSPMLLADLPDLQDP
# Sequence of FES^S700C (P07332 whole entry S700C): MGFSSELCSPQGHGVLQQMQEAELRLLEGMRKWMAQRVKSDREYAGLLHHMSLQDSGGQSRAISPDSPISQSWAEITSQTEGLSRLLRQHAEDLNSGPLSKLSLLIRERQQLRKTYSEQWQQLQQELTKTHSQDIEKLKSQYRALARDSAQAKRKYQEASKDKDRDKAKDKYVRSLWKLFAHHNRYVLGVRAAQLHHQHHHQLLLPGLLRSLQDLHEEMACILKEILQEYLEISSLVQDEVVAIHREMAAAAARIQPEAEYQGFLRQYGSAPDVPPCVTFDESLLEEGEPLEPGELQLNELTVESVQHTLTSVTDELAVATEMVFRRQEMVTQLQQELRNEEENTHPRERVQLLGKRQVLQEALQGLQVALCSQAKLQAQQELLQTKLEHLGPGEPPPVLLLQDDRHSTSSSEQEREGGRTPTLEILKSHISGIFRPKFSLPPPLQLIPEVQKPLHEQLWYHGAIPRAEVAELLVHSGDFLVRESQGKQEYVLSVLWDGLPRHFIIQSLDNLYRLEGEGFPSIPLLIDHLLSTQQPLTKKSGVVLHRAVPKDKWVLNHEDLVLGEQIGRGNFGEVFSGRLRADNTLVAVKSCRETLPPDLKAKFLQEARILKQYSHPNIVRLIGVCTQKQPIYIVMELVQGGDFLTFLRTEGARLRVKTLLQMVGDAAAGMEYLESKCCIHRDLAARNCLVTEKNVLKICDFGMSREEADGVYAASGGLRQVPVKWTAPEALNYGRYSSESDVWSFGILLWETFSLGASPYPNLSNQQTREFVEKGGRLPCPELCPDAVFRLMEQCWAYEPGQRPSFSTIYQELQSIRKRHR
# Sequence of MARK1 (MARK) (Q9P0L2 whole entry): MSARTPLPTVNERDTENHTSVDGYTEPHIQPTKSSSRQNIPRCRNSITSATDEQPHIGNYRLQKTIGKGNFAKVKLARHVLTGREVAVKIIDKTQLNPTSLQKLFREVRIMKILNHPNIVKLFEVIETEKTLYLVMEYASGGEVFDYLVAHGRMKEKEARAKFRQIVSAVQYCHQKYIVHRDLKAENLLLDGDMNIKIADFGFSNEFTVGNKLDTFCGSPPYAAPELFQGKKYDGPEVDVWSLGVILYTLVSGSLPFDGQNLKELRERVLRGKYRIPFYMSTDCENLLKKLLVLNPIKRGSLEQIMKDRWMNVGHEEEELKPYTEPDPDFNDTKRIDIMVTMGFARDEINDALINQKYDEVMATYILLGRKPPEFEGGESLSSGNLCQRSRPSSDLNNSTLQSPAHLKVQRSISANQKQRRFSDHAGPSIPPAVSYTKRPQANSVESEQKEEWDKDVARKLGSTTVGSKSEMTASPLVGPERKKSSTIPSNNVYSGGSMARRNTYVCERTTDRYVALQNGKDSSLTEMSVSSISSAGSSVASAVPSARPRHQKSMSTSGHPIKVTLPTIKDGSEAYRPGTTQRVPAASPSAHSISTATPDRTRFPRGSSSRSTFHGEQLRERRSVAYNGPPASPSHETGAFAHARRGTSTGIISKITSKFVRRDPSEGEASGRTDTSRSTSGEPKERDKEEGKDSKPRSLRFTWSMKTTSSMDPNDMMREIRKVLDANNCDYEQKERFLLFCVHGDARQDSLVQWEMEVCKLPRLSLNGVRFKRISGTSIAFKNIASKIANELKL
# Sequence of PLK3 (Q9H4B4 whole entry): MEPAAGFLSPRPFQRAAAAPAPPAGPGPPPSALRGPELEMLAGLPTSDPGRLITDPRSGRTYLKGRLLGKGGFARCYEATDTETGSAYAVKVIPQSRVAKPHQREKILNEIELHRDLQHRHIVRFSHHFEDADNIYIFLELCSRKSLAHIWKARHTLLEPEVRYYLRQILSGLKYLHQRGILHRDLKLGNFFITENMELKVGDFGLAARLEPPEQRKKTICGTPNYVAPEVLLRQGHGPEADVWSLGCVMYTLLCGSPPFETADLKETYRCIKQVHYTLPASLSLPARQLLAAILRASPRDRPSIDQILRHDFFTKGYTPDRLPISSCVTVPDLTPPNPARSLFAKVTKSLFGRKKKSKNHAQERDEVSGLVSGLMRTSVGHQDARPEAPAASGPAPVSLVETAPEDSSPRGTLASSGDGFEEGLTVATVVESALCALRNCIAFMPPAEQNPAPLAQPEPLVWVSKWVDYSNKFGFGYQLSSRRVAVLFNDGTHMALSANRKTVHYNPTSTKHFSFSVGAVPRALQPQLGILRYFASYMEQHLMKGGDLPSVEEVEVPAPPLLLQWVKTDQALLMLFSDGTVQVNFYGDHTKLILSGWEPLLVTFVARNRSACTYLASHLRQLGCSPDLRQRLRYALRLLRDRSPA
# Sequence of MKNK1 (MNK1) (Q9BUB5 whole entry): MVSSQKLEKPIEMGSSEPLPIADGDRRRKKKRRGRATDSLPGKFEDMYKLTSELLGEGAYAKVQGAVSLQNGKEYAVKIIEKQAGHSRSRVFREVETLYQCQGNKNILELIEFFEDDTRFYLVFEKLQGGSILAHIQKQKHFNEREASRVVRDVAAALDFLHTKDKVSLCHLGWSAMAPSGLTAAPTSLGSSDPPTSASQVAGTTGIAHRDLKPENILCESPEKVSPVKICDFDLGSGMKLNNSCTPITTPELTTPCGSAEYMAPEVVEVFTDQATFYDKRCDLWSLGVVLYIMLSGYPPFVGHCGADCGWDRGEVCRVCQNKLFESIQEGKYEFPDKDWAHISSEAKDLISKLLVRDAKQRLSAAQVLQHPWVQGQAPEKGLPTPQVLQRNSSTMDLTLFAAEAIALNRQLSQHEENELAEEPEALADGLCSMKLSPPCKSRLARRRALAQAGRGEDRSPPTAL
# Sequence of GRK6 (P43250 whole entry): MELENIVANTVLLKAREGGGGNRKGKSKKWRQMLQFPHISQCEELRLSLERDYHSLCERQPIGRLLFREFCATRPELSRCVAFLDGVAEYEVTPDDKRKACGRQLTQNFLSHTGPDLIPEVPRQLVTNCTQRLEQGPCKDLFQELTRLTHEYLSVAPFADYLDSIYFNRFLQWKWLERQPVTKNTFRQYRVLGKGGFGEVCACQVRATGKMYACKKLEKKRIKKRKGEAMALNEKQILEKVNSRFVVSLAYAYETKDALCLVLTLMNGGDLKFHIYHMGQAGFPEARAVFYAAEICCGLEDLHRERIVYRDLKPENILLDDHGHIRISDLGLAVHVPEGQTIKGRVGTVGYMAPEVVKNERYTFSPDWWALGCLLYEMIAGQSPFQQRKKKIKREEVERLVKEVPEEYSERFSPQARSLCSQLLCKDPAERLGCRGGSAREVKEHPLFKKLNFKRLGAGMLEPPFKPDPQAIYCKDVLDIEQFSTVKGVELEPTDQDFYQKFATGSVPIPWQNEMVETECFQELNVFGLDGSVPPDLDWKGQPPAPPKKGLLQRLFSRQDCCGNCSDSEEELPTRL
compound,measurement,setting,value
C#CCOc1ccc(Nc2ncc(Cl)c(Nc3ccccc3NC(=O)C=C)n2)c(OC)c1 [Compound 6],inhibition at 1 µM,FGFR3; [1],6%
same,inhibition at 1 µM,"FGFR3; read-out: Inhibition at 1 µM (%), FGFR3, 1 µM, ZLYTE, ATP Km app",7%
same,inhibition at 1 µM,STK32C (YANK3); 1 h,3%
same,inhibition at 1 µM,STK32C (YANK3); [2],3%
same,Inhibition at 1 µM (%),STK17A (DRAK1); [3],10%
same,inhibition at 1 µM,STK17A (DRAK1); [1],9%
same,inhibition at 1 µM,STK17A (DRAK1); [4],8%
same,Inhibition at 1 µM (%),STK39 (STLK3); [3],6%
same,inhibition at 1 µM,STK39 (STLK3); [1],8%
same,inhibition at 1 µM,STK39 (STLK3); [4],11%
same,inhibition at 1 µM,NTRK1 (TRKA); [1],17%
same,Inhibition at 1 µM (%),"NTRK1 (TRKA); NTRK1 (TRKA), 1 µM, ZLYTE, ATP Km app, listed as WEL028, 1 µM",16%
same,inhibition at 1 µM,"NTRK1 (TRKA); read-out: Inhibition at 1 µM (%), NTRK1 (TRKA), 1 µM, ZLYTE, ATP Km app",17%
same,inhibition at 1 µM,PLK3; [1],-1%
same,Inhibition at 1 µM (%),"PLK3; PLK3, 1 µM, ZLYTE, ATP Km app, listed as WEL028, 1 µM",2% and -3%
same,inhibition at 1 µM,MKNK1 (MNK1); [1],13%
same,Inhibition at 1 µM (%),"MKNK1 (MNK1); MKNK1 (MNK1), 1 µM, ZLYTE, ATP Km app",21%
same,inhibition at 1 µM,MAPK7 (ERK5); [1],4%
same,Inhibition at 1 µM (%),"MAPK7 (ERK5); MAPK7 (ERK5), 1 µM, ZLYTE, ATP Km app, listed as WEL028, 1 µM",3%
same,inhibition at 1 µM,"MAPK7 (ERK5); read-out: Inhibition at 1 µM (%), MAPK7 (ERK5), 1 µM, ZLYTE, ATP Km app",4%
same,inhibition at 1 µM,GRK6; 1 h,0%
same,inhibition at 1 µM,GRK6; [2],0%
same,IC80,"FES^S700C; concentration used for dialysis, 30 min, rt",231 nM
same,"Relative FES labeling (% of vehicle), Pre-dialysis","FES^S700C; inhibitor at IC80, WEL033 250 nM, replicates, listed as WEL028",2.76% and 2.085% and 2.269%
same,"Relative FES labeling (% of vehicle), Post-dialysis","FES^S700C; overnight dialysis at 4 °C, WEL033 250 nM, replicates, listed as WEL028",10.52% and 32.8765% and 11.5588%
same,inhibition at 1 µM,JAK3; [1],14%
same,Inhibition at 1 µM (%),"JAK3; JAK3, 1 µM, ZLYTE, ATP Km app, listed as WEL028, 1 µM",10%
same,inhibition at 1 µM,"JAK3; read-out: Inhibition at 1 µM (%), JAK3, 1 µM, ZLYTE, ATP Km app",18%
same,inhibition at 1 µM,IKBKB (IKK beta); 1 h,1%
same,inhibition at 1 µM,IKBKB (IKK beta); [2],1%
same,inhibition at 1 µM,MARK1 (MARK); [1],1%
same,Inhibition at 1 µM (%),"MARK1 (MARK); MARK1 (MARK), 1 µM, ZLYTE, ATP Km app, listed as WEL028, 1 µM",-1% and 4%
